Reference: paper PMC5845165, “Pharmacokinetic Study of 7 Compounds Following Oral Administration of Fructus Aurantii to Depressive Rats” (Frontiers in Pharmacology, 2018)

Assays:
[1] = Stability of the analytes in rat plasma (QC samples); type: in vitro ADME; conditions: deviation from nominal conc
Experimental: The stabilities of the 7 analytes in rat plasma was evaluated by assaying six replicates of QC samples at low, middle, and high concentrations in practical experimental conditions: samples post-preparation stored in auto-sampler condition for 12 h, and storage at -80°C for 1 month. The freeze- thaw stability was determined after the experience of three freeze-thaw cycles (from -80°C to room temperature). Samples were identified as stable if the accuracy bias was within 15.0% of the nominal concentration.

[2] = Qualitative LC/MS-MS identification in hippocampus and cortex after oral ZQ extract; type: in vivo, Sprague–Dawley rats; conditions: acute depressive rats, 0.5 h after oral ZQ extract 20 g/kg
Experimental: To identify the main active compounds of ZQ in target tissue, six rats subjected to FST were sacrificed under anesthesia 0.5 h after oral administration of ZQ extract (20 g/kg), and then the hippocampal and cortex tissue was separated rapidly from the brain on an ice tray and stored at -80°C. All tissues (∼50.0 mg) were homogenized with 1.5 mL of ice-cold 0.9% saline.
(§1) Sample (200 μL) and 10 μL of mixed IS solution containing sulfamethoxazole (754 ng/mL) and honokiol (274 ng/mL) was added to Eppendorf tubes and extracted with 1 mL acetonitrile. The mixed solution was vortexed for 3 min and centrifuged at 10000 rpm for 10 min at 4°C to acquire the supernatant. The supernatant (800 μL) was moved to a clean Eppendorf tube, and then desiccated under a flow of nitrogen at 40°C. Finally, the residue was redissolved in 100 μL acetonitrile/water (90:10, v/v) with vortex-mixing for 3 min and centrifuged at 13000 rpm for 10 min. A 10 μL aliquot of the sample was injected into the LC/MS/MS system for analysis.

[3] = parameters: method as in Tong et al., 2012; conditions: oral ZQ 3.2 g/kg, ref Tong et al., 2012; cited from earlier work
[4] = Pharmacokinetic study in plasma of acute depressive rats after oral ZQ extract (LC-MS/MS); type: in vivo, Sprague–Dawley rats; conditions: oral ZQ extract 20 g/kg; for AUC / AUC(0-t) / Cmax / Tmax / half-life: Sprague-Dawley, rat; for AUC: AUC0-∞; for half-life: male, po, 20 g/kg
Experimental: as §1
All of the rats were subjected to FST for 24 h before oral administration of the ZQ extract (20 g/kg). Plasma samples (about 0.5 mL) were gathered in a heparinized 1.5 mL Eppendorf tube from the venous plexus of the eye socket at 0.083, 0.25, 0.5, 0.75, 1.0, 1.5, 2.0, 3.0, 4.0, 6.0, 8.0, 12.0, and 24.0 h under anesthesia. Each sample was immediately centrifuged at 10000 rpm for 15 min to acquire the plasma. At last, the plasma was immediately placed at -80°C until measure.
All data were expressed as the mean ± SD. The plasma concentration of the 7 compounds during the experiment was calculated according to the daily calibration curve. The pharmacokinetic parameters, including Cmax (the peak drug plasma concentration), Tmax (the time to Cmax), AUC0-t (the area under the plasma concentration-time curve from 0 to time), AUC0-∞ (the area under the plasma concentration-time curve from 0 to time infinity), and t1/2 (the elimination half-life) were calculated by performing a non-compartment model using WinNonlin Professional Edition Version 2.1 (Pharsight Corporation, Sunnyvale, CA, United States). The immobile time in the FST test was evaluated by one-way ANOVA. Statistical significance was denoted at p < 0.05. Statistical analysis was operated by GraphPad Prism 5 software.

[5] = system: rats undergoing the forced swimming test (FST); assay: Forced swimming test (FST), immobility time after acute oral treatment; type: in vivo, Sprague–Dawley rats; conditions: Fluoxetine 20 mg/kg, single oral dose 0.5 h before test (Figure 1A); p < 0.05 vs vehicle
Experimental: ZQ lyophilized powder or fluoxetine (Eli Lilly, United States) was dissolved with saline. To evaluate dose-dependent effects, ZQ (5, 10, 20 g/kg) or fluoxetine (20 mg/kg) was orally administered as a single dosage 0.5 h before the test. To study the precise relationship between antidepressant effects and pharmacokinetics, ZQ (20 g/kg) was orally administered as a single dose 0.5, 1, 2, or 4 h before the test. Similarly, vehicle rats were orally administered an equal volume of saline using the identical procedure.
The swimming tests were conducted according to a previously described method ([Flores-Burgess et al., 2017]) with minor modifications. In brief, all experiments were operated between 12:00 h and 15:00 h in the light cycle. Each rat was individually put into a vertical glass cylinder with a diameter of 20 cm, water depth of 30 cm and water temperature of 25°C. A 15-min forced swimming test was conducted 24 h before the 5-min test. Each rat was deemed to be immobile when it stopped scrabbling, remained floating stilly in the water and only made necessary struggling to maintain its head over water. The total duration of immobility was recorded during the 5-min test.

[6] = plasma, male SD rats subjected to FST, mean ± SD, n = 6

SMILES | RE, -80°C for 1 month ([1]; high QC level) | RE, Room temperature for 12 h ([1]; high QC level) | RE, Three freeze-thaw cycles ([1]; high QC level) | RE, -80°C for 1 month ([1]; low QC level) | RE, Room temperature for 12 h ([1]; low QC level) | RE, Three freeze-thaw cycles ([1]; low QC level) | RE, -80°C for 1 month ([1]; middle QC level) | RE, Room temperature for 12 h ([1]; middle QC level) | RE, Three freeze-thaw cycles ([1]; middle QC level) | absorption into hippocampus and cortex (qualitative) [2] | AUC [4, 6] | AUC(0-t) [4, 6] | Cmax [4, 6] | Tmax [4, 6] | half-life [4, 6] | AUC0-∞ relative to other flavonoids ([4]; depressive rats) | T1/2 [4, 6] | AUC0-∞ in healthy rats compared with this study [3] | immobility time in the FST [5]
C[C@@H]1O[C@@H](O[C@H]2[C@H](Oc3cc(O)c4c(c3)O[C@H](c3ccc(O)cc3)CC4=O)O[C@H](CO)[C@@H](O)[C@@H]2O)[C@H](O)[C@H](O)[C@H]1O [Naringin, naringin] | 4.57% | 5.94% | 0.56% | 12.29% | 5.84% | 9.33% | 0.21% | 6.83% | 4.34% | absorbed into the hippocampus and cortex | 312 ± 89.5 ng·h/mL | 293 ± 92 ng·h/mL | 104 ± 18.8 ng/mL | 25.2 ± 7.8 min | 100 ± 34.2 min | – | – | higher than the data obtained in our experiment | –
COc1ccc(-c2cc(=O)c3c(OC)c(OC)c(OC)c(OC)c3o2)cc1OC [Nobiletin, nobiletin] | -1.14% | 4.48% | -6.73% | -9.94% | -4.37% | -7.88% | -8.19% | 5.03% | -7.62% | absorbed into the hippocampus and cortex | 153 ± 40 ng·h/mL | 151 ± 40.6 ng·h/mL | 53.9 ± 14.3 ng/mL | 22.8 ± 8.4 min | 76.8 ± 52.2 min | – | – | – | –
COc1ccc2ccc(=O)oc2c1CC(O)C(C)(C)O (stereo not drawn) [Meranzin hydrate] | 9.41% | 7.34% | 3.48% | 6.97% | 11.26% | 11.95% | 7.29% | 2.66% | -13.99% | absorbed into the hippocampus and cortex | 1710 ± 350 ng·h/mL | 1480 ± 259 ng·h/mL | 222 ± 53.9 ng/mL | 75 ± 25.2 min | > 438 min | at least fivefold higher | 7.31 ± 1.51 h | – | –
CNCCC(Oc1ccc(C(F)(F)F)cc1)c1ccccc1 (stereo not drawn) [Fluoxetine, fluoxetine] | – | – | – | – | – | – | – | – | – | – | – | – | – | – | – | – | – | – | 116.07 ± 28.65 s

Continued, in another order:

RE, -80°C for 1 month ([1]; high QC level) | RE, Room temperature for 12 h ([1]; high QC level) | RE, Three freeze-thaw cycles ([1]; high QC level) | RE, -80°C for 1 month ([1]; low QC level) | RE, Room temperature for 12 h ([1]; low QC level) | RE, Three freeze-thaw cycles ([1]; low QC level) | RE, -80°C for 1 month ([1]; middle QC level) | RE, Room temperature for 12 h ([1]; middle QC level) | RE, Three freeze-thaw cycles ([1]; middle QC level) | absorption into hippocampus and cortex (qualitative) [2] | AUC [4, 6] | AUC(0-t) [4, 6] | Cmax [4, 6] | Tmax [4, 6] | half-life [4, 6] | AUC0-∞ relative to other flavonoids ([4]; depressive rats) | T1/2 [4, 6] | SMILES | AUC0-∞ in healthy rats compared with this study [3] | immobility time in the FST [5]
3.14% | -2.56% | -2.59% | -7.39% | 5.64% | -8.95% | -6.00% | 10.67% | -4.45% | absorbed into the hippocampus and cortex | 226 ± 64.9 ng·h/mL | 188 ± 38.9 ng·h/mL | 78.1 ± 22.2 ng/mL | 25.2 ± 7.8 min | 262 ± 71.4 min | – | – | O=C1C[C@@H](c2ccc(O)cc2)Oc2cc(O)cc(O)c21 [Naringenin, naringenin] | higher than the data obtained in our experiment | –
2.03% | 10.82% | -0.30% | 3.31% | -5.80% | 7.23% | 3.13% | 7.28% | 5.88% | absorbed into the hippocampus and cortex | 239 ± 95.6 ng·h/mL | 234 ± 87.3 ng·h/mL | 90.8 ± 48.5 ng/mL | 17.4 ± 6 min | 121 ± 46.2 min | – | – | COc1ccc([C@@H]2CC(=O)c3c(O)cc(O[C@@H]4O[C@H](CO)[C@@H](O)[C@H](O)[C@H]4O[C@@H]4O[C@@H](C)[C@H](O)[C@@H](O)[C@H]4O)cc3O2)cc1O [Neohesperidin, neohesperidin] | higher than the data obtained in our experiment | –
0.02% | 4.88% | -1.62% | 6.36% | -1.88% | 4.08% | 4.15% | 0.91% | 5.80% | absorbed into the hippocampus and cortex | 179 ± 43.9 ng·h/mL | 136 ± 23.7 ng·h/mL | 46 ± 7.32 ng/mL | 25.2 ± 7.8 min | 176 ± 52.8 min | – | – | COc1ccc([C@@H]2CC(=O)c3c(O)cc(O[C@@H]4O[C@H](CO[C@@H]5O[C@@H](C)[C@H](O)[C@@H](O)[C@H]5O)[C@@H](O)[C@H](O)[C@H]4O)cc3O2)cc1O [Hesperidin, hesperidin] | – | –
3.03% | 5.53% | 7.94% | 8.49% | 12.43% | 9.69% | 7.57% | 1.84% | 8.89% | absorbed into the hippocampus and cortex | 44.9 ± 9.99 ng·h/mL | 42.6 ± 9.64 ng·h/mL | 31.1 ± 8.83 ng/mL | 19.8 ± 7.8 min | 89.4 ± 25.2 min | – | – | C[C@@H]1O[C@@H](OC[C@H]2O[C@@H](Oc3cc(O)c4c(c3)O[C@H](c3ccc(O)cc3)CC4=O)[C@H](O)[C@@H](O)[C@@H]2O)[C@H](O)[C@H](O)[C@H]1O [Narirutin, narirutin] | – | –
